Laboratory results from ChEMBL document CHEMBL1142279, “Optimization of 2,3,5-trisubstituted pyridine derivatives as potent allosteric Akt1 and Akt2 inhibitors” (Bioorg Med Chem Lett, 2008).

What was measured:
[1] = molecular target: RAC-beta serine/threonine-protein kinase (Homo sapiens) (UniProt P31751); test: Inhibition of human recombinant Akt2
[2] = molecular target: RAC-alpha serine/threonine-protein kinase (Homo sapiens) (UniProt P31749); test: Inhibition of Akt1 in human C33a cells; format: cell-based
[3] = Inhibition of SGK
[4] = molecular target: RAC-beta serine/threonine-protein kinase (Homo sapiens) (UniProt P31751); test: Inhibition of Akt2 in human C33a cells; format: cell-based
[5] = molecular target: RAC-alpha serine/threonine-protein kinase (Homo sapiens) (UniProt P31749); test: Inhibition of human recombinant Akt1
[6] = molecular target: RAC-gamma serine/threonine-protein kinase (Homo sapiens) (UniProt Q9Y243); test: Inhibition of human recombinant Akt3
[7] = Inhibition of PKC
[8] = Volume of distribution at steady state in dog at 0.25 mg/kg, iv; format: ADME, organism-based, Canis lupus familiaris; design: dose 0.25 mg/kg, route intravenous; conditions: in vivo, read-out: Vdss
[9] = Clearance in dog at 0.25 mg/kg, iv; format: ADME, organism-based, Canis lupus familiaris; design: dose 0.25 mg/kg, route intravenous; conditions: in vivo
[10] = molecular target: Protein kinase C alpha type (Homo sapiens) (UniProt P17252); test: Inhibition of PKCalpha
[11] = Inhibition of PKA
[12] = Half life in dog at 0.25 mg/kg, iv; format: ADME, organism-based, Canis lupus familiaris; design: dose 0.25 mg/kg, route intravenous; conditions: in vivo

RAC-beta serine/threonine-protein kinase (Homo sapiens), sequence (P31751 whole entry): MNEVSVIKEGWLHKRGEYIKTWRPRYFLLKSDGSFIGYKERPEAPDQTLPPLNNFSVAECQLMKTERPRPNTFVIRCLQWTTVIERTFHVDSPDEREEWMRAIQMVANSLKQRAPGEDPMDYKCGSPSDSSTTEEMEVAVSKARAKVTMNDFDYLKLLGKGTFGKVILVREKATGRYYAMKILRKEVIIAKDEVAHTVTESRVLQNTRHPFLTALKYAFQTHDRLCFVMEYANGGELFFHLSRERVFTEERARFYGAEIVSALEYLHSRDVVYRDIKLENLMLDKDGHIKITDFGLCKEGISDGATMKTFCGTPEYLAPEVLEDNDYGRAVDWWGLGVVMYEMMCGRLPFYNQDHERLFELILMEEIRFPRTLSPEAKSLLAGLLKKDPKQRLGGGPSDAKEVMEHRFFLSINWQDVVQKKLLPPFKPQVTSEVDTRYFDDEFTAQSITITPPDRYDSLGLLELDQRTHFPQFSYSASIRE
RAC-gamma serine/threonine-protein kinase (Homo sapiens), sequence (Q9Y243 whole entry): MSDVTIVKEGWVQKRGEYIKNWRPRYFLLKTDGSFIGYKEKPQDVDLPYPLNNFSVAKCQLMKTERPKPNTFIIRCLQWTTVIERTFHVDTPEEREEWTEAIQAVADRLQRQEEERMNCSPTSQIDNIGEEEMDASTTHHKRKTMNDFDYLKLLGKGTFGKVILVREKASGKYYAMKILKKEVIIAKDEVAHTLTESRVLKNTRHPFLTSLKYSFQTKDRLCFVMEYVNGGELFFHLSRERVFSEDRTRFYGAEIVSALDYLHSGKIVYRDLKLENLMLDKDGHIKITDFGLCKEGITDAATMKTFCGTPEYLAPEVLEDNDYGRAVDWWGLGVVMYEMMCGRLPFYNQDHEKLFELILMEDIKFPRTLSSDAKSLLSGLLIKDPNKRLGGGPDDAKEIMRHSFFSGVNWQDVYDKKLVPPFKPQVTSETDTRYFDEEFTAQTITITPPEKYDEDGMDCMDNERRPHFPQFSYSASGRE
RAC-alpha serine/threonine-protein kinase (Homo sapiens), sequence (P31749 whole entry): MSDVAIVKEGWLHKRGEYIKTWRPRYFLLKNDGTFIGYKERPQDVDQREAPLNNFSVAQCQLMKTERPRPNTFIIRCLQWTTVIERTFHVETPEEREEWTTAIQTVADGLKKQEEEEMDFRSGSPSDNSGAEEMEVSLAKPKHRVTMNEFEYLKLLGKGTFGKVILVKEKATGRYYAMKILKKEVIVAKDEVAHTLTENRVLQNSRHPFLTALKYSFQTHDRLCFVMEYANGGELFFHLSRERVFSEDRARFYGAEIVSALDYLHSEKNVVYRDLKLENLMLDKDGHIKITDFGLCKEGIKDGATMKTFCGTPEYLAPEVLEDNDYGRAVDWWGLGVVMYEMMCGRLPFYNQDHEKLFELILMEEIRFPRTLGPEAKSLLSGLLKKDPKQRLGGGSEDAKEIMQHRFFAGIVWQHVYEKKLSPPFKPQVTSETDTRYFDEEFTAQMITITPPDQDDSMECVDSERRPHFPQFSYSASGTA

Compound	Activity [1] [nM]	Activity [2] [nM]	IC50 [3] [µM]	Activity [4] [nM]	Activity [5] [nM]	Activity [6] [µM]	IC50 [7] [µM]	Vd [8] [L/kg]	clearance [9] [mL/min/kg]	IC50 [10] [µM]	IC50 [11] [µM]	half-life [12] [h]
Nc1ncnc2c1cnn2C1CCN(Cc2ccc(-c3ncc(-c4nccs4)cc3-c3ccccc3)cc2)CC1	64	1650	> 50	3240	264	–	–	–	–	–	–	–
Nc1nnc(-c2cnc(-c3ccc(CN4CCC(n5cc(-c6cnccn6)cn5)CC4)cc3)c(-c3ccccc3)c2)s1	51	1380	> 50	2030	172	–	–	–	–	–	–	–
O=c1[nH]c2ccccc2n1C1CCN(Cc2ccc(-c3ncc(-c4nnn[nH]4)cc3-c3ccccc3)cc2)CC1	150	> 50000	–	> 50000	273	> 50	–	–	–	–	–	–
Nc1ncnc2c1ncn2C1CCN(Cc2ccc(-c3ncc(-c4nnn[nH]4)cc3-c3ccccc3)cc2)CC1	105	> 50000	–	> 50000	210	> 50	–	–	–	–	–	–
Nc1ncnc2c1cnn2C1CCN(Cc2ccc(-c3ncc(-c4ccccn4)cc3-c3ccccc3)cc2)CC1	370	10000	–	8110	1630	–	–	–	–	–	–	–
N#Cc1cnc(-c2ccc(CN3CCC(n4c(=O)[nH]c5ccccc54)CC3)cc2)c(-c2ccccc2)c1	3140	> 50000	–	> 50000	762	> 50	–	–	–	–	–	–
Nc1nnc(-c2cnc(-c3ccc(CNCCC(=O)c4ccccc4N)cc3)c(-c3ccccc3)c2)s1	30	618	–	472	114	–	–	–	–	–	–	–
Nc1ncnc2c1cnn2C1CCN(Cc2ccc(-c3ncc(-c4ncon4)cc3-c3ccccc3)cc2)CC1	121	288	> 50	1060	180	–	–	–	–	–	–	–
Nc1nnc(-c2cnc(-c3ccc(CN4CCC(c5n[nH]c(-c6ccccn6)n5)CC4)cc3)c(-c3ccccc3)c2)s1	22	516	> 50	330	85	–	–	–	–	–	–	–
Nc1ncnc2c1cnn2C1CCN(Cc2ccc(-c3ncc(-c4nc[nH]n4)cc3-c3ccccc3)cc2)CC1	101	890	> 50	666	182	–	–	–	–	–	–	–
Nc1nnc(-c2cnc(-c3ccc(CN4CCC(n5cc(-c6ccccn6)cn5)CC4)cc3)c(-c3ccccc3)c2)s1	90	1350	> 50	1350	214	–	–	–	–	–	–	–
Nc1nnc(-c2cnc(-c3ccc(CN4CCC(c5cc(-c6ccccn6)[nH]n5)CC4)cc3)c(-c3ccccc3)c2)s1	28	734	> 50	300	95	–	–	–	–	–	–	–
Nc1nnc(-c2cnc(-c3ccc(CN4CCC(n5ncc6c(N)ncnc65)CC4)cc3)c(-c3ccccc3)c2)s1	22	621	> 50	416	126	–	> 10	0.41	1.37	> 10	> 10	3.62
Nc1ncnc2c1cnn2C1CCN(Cc2ccc(-c3ncc(-c4ncccn4)cc3-c3ccccc3)cc2)CC1	62	1950	> 50	3460	306	–	–	–	–	–	–	–
Nc1nnc(-c2cnc(-c3ccc(CN4CCC(c5cc(-c6ccncc6)[nH]n5)CC4)cc3)c(-c3ccccc3)c2)s1	38	407	> 50	153	123	–	–	–	–	–	–	–
Nc1nnc(-c2cnc(-c3ccc(CN4CCC(n5c(=O)[nH]c6ncccc65)CC4)cc3)c(-c3ccccc3)c2)s1	73	12600	> 50	3960	434	–	–	–	–	–	–	–
